Assay results from patent US6949573B2, “Nicotinamide derivatives useful as PDE4 inhibitors” (Pfizer Inc, priority 2002, dated 2005).

System: human peripheral blood mononuclear cells
Assay: Inhibition of LPS-stimulated TNFα release from human peripheral blood mononuclear cells (TNFα screen)
Type: cell-based
Settings: LPS-stimulated human PBMC, 18 hours incubation, TNFα in supernatant by ELISA
Description: Venous blood Is collected from healthy volunteers and the mononuclear cells purified by centrifugation through Histopaque (ficoll) cushions. TNFα production from these cells is stimulated by addition of lipopolysaccharide. After 18 hours incubation in the presence of LPS, the cell supernatant is removed and the concentration of TNFα in the supernatant determined by ELISA. Addition of PDE4 inhibitors reduces the amount of TNFα produced. An IC50 is determined which is equal to the concentration of compound that gives 50% inhibition of TNFα production as compared to the LPS stimulated control wells.

## COC(=O)CCC(=O)NC1CCC(NC(=O)c2cc(F)cnc2Oc2ccc(F)cc2)CC1 (stereo not drawn) [Example 110, Syn-N-(4-{[5-fluoro-2-(4-fluoro-phenoxy)-pyridine-3-carbonyl]-amino}-cyclo-hexyl)-succinamic acid methyl ester]
  IC50: 14 nM
